The source made the active and inactive calls. The calls are words filed in the database; no cut-off is given here.
How the values were obtained:
[1] = target: Phosphatidylinositol 4-phosphate 3-kinase C2 domain-containing subunit alpha (Homo sapiens) (UniProt O00443); assay: Inhibition of PIK3C2alpha at 1 uM
[2] = target: Phosphatidylinositol 4-phosphate 3-kinase C2 domain-containing subunit beta (Homo sapiens) (UniProt O00750); assay: Inhibition of PIK3C2beta at 1 uM
[3] = target: Phosphatidylinositol 3-kinase catalytic subunit type 3 (Homo sapiens) (UniProt Q8NEB9); assay: Inhibition of VPS34 at 1 uM
[4] = target: Phosphatidylinositol 4-kinase beta (Homo sapiens) (UniProt Q9UBF8); assay: Inhibition of PI4Kbeta at 1 uM
PC-3 [5] = assay: Antitumor activity against human PC3 cells xenografted in nu/nu mouse assessed as inhibition of tumor growth at 10 mg/kg, po qd for 14 days; format: functional; conditions: PC-3, 336 h, read-out: TGI
PC-3 [6] = assay: Antitumor activity against human PC3 cells xenografted in nu/nu mouse assessed as inhibition of tumor growth at 1 mg/kg, po qd for 14 days; format: functional, organism-based; parameters: dose 1 mg/kg
Mus musculus [7] = assay: Inhibition of PI3K/Akt/mTOR pathway signaling in PI3Kalpha mutant expressing human MCF7.1 cells xenografted nu/nu mouse assessed as inhibition of Akt Ser473 phosphorylation at 10 mg/kg, po qd for 21 days measured 1 hr after last administered dose on day 21 by electrochemiluminescence assay; format: functional
Mus musculus [8] = assay: Inhibition of PI3K/Akt/mTOR pathway signaling in PI3Kalpha mutant expressing human MCF7.1 cells xenografted nu/nu mouse assessed as inhibition of Akt Ser473 phosphorylation at 10 mg/kg, po qd for 21 days measured 4 hrs after last administered dose on day 21 by electrochemiluminescence assay; format: functional
Mus musculus [9] = assay: Inhibition of PI3K/Akt/mTOR pathway signaling in PI3Kalpha mutant expressing human MCF7.1 cells xenografted nu/nu mouse assessed as inhibition of Pras40 Thr246 phosphorylation at 10 mg/kg, po qd for 21 days measured 1 hr after last administered dose on day 21 by ELISA; format: functional
Mus musculus [10] = assay: Inhibition of PI3K/Akt/mTOR pathway signaling in PI3Kalpha mutant expressing human MCF7.1 cells xenografted nu/nu mouse assessed as inhibition of Pras40 Thr246 phosphorylation at 10 mg/kg, po qd for 21 days measured 4 hrs after last administered dose on day 21 by ELISA; format: functional
PC-3 [11] = assay: Antitumor activity against human PC3 cells xenografted in nu/nu mouse assessed as reduction of tumor volume at 10 mg/kg, po qd for 14 days; format: functional; parameters: scale not given: the % may be the effect or the level left
Mus musculus [12] = assay: Toxicity in human PC3 cells xenografted nu/nu mouse assessed as body weight loss at 1 mg/kg, po qd for 14 days; format: organism-based, PC-3; parameters: dose 1 mg/kg, route oral; conditions: in vivo, 336 h
Mus musculus [13] = assay: Toxicity in human PC3 cells xenografted nu/nu mouse assessed as body weight loss at 10 mg/kg, po qd for 14 days; format: organism-based, PC-3; parameters: dose 10 mg/kg, route oral; conditions: in vivo, 336 h
[14] = Antitumor activity against human MCF7.1 cells expressing PI3Kalpha mutant xenografted in nu/nu mouse assessed as inhibition of tumor growth at 10 mg/kg, po qd for 21 days; format: functional; conditions: MCF7.1, 504 h, read-out: TGI
Mus musculus [15] = assay: Toxicity in human MCF7.1 cells expressing PI3Kalpha mutant xenografted nu/nu mouse assessed as body weight loss at 10 mg/kg, po qd for 21 days; format: organism-based; parameters: dose 10 mg/kg, route oral; conditions: in vivo, 504 h
Mus musculus [16] = assay: Inhibition of PI3K/Akt/mTOR pathway signaling in PI3Kalpha mutant expressing human MCF7.1 cells xenografted nu/nu mouse assessed as inhibition of S6RP Ser235/236 phosphorylation at 10 mg/kg, po qd for 21 days measured 1 hr after last administered dose on day 21 by electrochemiluminescence assay; format: functional
Mus musculus [17] = assay: Inhibition of PI3K/Akt/mTOR pathway signaling in PI3Kalpha mutant expressing human MCF7.1 cells xenografted nu/nu mouse assessed as inhibition of S6RP Ser235/236 phosphorylation at 10 mg/kg, po qd for 21 days measured 4 hrs after last administered dose on day 21 by electrochemiluminescence assay; format: functional
[18] = Oral bioavailability in Beagle dog at 2 mg/kg, po; format: ADME, organism-based, Canis lupus familiaris; conditions: in vivo
[19] = Protein binding in Beagle dog plasma; format: ADME, cell-free, Canis lupus familiaris; conditions: read-out: PPB (converted)
[20] = Volume of distribution at steady state in Sprague-Dawley rat at 1 mg/kg, iv; format: ADME, organism-based; parameters: dose 1 mg/kg, route intravenous; conditions: in vivo, read-out: Vdss
[21] = Half life in nu/nu mouse at 5 mg/kg, po; format: ADME, organism-based; parameters: dose 5 mg/kg, route oral; conditions: in vivo
Aurora kinase A = target: T1, Aurora kinase A (Homo sapiens, UniProt O14965); assay: Inhibition of Aurora A kinase
T1 sequence (O14965 whole entry): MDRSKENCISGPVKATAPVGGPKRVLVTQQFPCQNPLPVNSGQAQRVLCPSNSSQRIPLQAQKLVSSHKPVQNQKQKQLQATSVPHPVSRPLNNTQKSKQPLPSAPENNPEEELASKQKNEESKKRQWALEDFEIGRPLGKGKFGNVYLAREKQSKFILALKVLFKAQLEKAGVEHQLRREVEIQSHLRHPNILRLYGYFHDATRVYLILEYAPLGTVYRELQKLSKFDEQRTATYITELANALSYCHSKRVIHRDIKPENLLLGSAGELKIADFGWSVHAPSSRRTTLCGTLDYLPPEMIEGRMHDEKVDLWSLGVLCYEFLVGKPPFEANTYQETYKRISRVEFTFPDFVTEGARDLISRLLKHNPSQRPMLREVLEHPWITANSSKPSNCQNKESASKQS

[22] = target: Mitogen-activated protein kinase kinase kinase 9 (Homo sapiens, UniProt P80192); assay: Inhibition of MLK1
[23] = target: Tyrosine-protein kinase SYK (Homo sapiens, UniProt P43405); assay: Inhibition of SYK
PC-3 [24] = assay: Antiproliferative activity against human PC3 cells deficient in PTEN in after 3 to 4 days; format: functional, cell-based
[25] = Clearance in Sprague-Dawley rat at 1 mg/kg, iv; format: ADME, organism-based; parameters: dose 1 mg/kg, route intravenous; conditions: in vivo
[26] = Oral bioavailability in Sprague-Dawley rat at 2 mg/kg; format: ADME, organism-based; conditions: in vivo
[27] = Clearance in Sprague-Dawley rat liver microsomes; format: ADME, Microsome
[28] = Clearance in nu/nu mouse at 1 mg/kg, iv; format: ADME, organism-based; parameters: dose 1 mg/kg, route intravenous; conditions: in vivo
[29] = Clearance in cynomolgus monkey at 1 mg/kg, iv; format: ADME, organism-based, Macaca fascicularis; parameters: dose 1 mg/kg, route intravenous; conditions: in vivo
[30] = Clearance in Beagle dog at 1 mg/kg, iv; format: ADME, organism-based, Canis lupus familiaris; parameters: dose 1 mg/kg, route intravenous; conditions: in vivo
[31] = Volume of distribution at steady state in nu/nu mouse at 1 mg/kg, iv; format: ADME, organism-based; parameters: dose 1 mg/kg, route intravenous; conditions: in vivo, read-out: Vdss
[32] = Volume of distribution at steady state in cynomolgus monkey at 1 mg/kg, iv; format: ADME, organism-based, Macaca fascicularis; parameters: dose 1 mg/kg, route intravenous; conditions: in vivo, read-out: Vdss
[33] = Volume of distribution at steady state in Beagle dog at 1 mg/kg, iv; format: ADME, organism-based, Canis lupus familiaris; parameters: dose 1 mg/kg, route intravenous; conditions: in vivo, read-out: Vdss
[34] = Cmax in nu/nu mouse at 5 mg/kg, po; format: ADME, organism-based; parameters: dose 5 mg/kg, route oral; conditions: in vivo
[35] = AUC in nu/nu mouse at 5 mg/kg, po; format: ADME, organism-based; parameters: dose 5 mg/kg, route oral; conditions: plasma
[36] = Oral bioavailability in nu/nu mouse at 5 mg/kg, po; format: ADME, organism-based; conditions: in vivo
[37] = Protein binding in mouse plasma; format: ADME, cell-free; conditions: read-out: PPB (converted)
[38] = Cmax in Sprague-Dawley rat at 5 mg/kg, po; format: ADME, organism-based; parameters: dose 5 mg/kg, route oral; conditions: in vivo
[39] = AUC in Sprague-Dawley rat at 5 mg/kg, po; format: ADME, organism-based; parameters: dose 5 mg/kg, route oral; conditions: plasma
[40] = Oral bioavailability in Sprague-Dawley rat at 5 mg/kg, po; format: ADME, organism-based; conditions: in vivo
[41] = Protein binding in rat plasma; format: ADME, cell-free; conditions: read-out: PPB (converted)
[42] = Cmax in cynomolgus monkey at 2 mg/kg, po; format: ADME, organism-based, Macaca fascicularis; parameters: dose 2 mg/kg, route oral; conditions: in vivo
[43] = AUC in cynomolgus monkey at 2 mg/kg, po; format: ADME, organism-based, Macaca fascicularis; parameters: dose 2 mg/kg, route oral; conditions: plasma
[44] = Oral bioavailability in cynomolgus monkey at 2 mg/kg, po; format: ADME, organism-based, Macaca fascicularis; conditions: in vivo
[45] = Protein binding in cynomolgus monkey plasma; format: ADME, cell-free, Macaca fascicularis; conditions: read-out: PPB (converted)
[46] = Cmax in Beagle dog at 2 mg/kg, po; format: ADME, organism-based, Canis lupus familiaris; parameters: dose 2 mg/kg, route oral; conditions: in vivo
[47] = AUC in Beagle dog at 2 mg/kg, po; format: ADME, organism-based, Canis lupus familiaris; parameters: dose 2 mg/kg, route oral; conditions: plasma
[48] = target: Serine/threonine-protein kinase mTOR (Homo sapiens, UniProt P42345)

Mitogen-activated protein kinase kinase kinase 9, sequence (P80192 whole entry): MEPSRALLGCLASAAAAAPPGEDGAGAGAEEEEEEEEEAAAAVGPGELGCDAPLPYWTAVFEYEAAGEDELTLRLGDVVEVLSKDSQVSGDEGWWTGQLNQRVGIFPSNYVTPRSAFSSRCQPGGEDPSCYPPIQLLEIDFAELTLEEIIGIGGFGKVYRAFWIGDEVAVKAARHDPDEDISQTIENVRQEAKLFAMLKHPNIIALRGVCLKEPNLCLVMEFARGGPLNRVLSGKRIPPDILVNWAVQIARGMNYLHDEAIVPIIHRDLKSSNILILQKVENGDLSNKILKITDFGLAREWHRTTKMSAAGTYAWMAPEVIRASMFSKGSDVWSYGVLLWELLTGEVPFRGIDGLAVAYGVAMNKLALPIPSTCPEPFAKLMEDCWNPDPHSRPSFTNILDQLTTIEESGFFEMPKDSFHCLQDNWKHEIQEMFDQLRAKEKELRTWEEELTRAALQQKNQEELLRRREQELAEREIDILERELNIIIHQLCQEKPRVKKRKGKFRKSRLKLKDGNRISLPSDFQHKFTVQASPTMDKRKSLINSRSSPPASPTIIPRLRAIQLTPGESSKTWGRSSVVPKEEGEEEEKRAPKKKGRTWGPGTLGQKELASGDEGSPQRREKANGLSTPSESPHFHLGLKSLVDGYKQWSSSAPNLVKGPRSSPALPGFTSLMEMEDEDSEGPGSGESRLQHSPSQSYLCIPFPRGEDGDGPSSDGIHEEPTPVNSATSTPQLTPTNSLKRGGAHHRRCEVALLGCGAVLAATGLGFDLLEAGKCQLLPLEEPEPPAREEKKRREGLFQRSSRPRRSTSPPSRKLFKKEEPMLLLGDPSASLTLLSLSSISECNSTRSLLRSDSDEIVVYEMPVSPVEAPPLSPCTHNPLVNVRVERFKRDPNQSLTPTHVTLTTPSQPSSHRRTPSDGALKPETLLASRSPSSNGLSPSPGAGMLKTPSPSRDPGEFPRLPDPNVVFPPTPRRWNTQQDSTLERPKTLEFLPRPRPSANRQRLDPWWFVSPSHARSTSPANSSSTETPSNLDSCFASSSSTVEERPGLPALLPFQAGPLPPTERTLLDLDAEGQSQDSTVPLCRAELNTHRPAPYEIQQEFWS
Phosphatidylinositol 4-phosphate 3-kinase C2 domain-containing subunit alpha (Homo sapiens), sequence (O00443 whole entry, the tested form may be a part): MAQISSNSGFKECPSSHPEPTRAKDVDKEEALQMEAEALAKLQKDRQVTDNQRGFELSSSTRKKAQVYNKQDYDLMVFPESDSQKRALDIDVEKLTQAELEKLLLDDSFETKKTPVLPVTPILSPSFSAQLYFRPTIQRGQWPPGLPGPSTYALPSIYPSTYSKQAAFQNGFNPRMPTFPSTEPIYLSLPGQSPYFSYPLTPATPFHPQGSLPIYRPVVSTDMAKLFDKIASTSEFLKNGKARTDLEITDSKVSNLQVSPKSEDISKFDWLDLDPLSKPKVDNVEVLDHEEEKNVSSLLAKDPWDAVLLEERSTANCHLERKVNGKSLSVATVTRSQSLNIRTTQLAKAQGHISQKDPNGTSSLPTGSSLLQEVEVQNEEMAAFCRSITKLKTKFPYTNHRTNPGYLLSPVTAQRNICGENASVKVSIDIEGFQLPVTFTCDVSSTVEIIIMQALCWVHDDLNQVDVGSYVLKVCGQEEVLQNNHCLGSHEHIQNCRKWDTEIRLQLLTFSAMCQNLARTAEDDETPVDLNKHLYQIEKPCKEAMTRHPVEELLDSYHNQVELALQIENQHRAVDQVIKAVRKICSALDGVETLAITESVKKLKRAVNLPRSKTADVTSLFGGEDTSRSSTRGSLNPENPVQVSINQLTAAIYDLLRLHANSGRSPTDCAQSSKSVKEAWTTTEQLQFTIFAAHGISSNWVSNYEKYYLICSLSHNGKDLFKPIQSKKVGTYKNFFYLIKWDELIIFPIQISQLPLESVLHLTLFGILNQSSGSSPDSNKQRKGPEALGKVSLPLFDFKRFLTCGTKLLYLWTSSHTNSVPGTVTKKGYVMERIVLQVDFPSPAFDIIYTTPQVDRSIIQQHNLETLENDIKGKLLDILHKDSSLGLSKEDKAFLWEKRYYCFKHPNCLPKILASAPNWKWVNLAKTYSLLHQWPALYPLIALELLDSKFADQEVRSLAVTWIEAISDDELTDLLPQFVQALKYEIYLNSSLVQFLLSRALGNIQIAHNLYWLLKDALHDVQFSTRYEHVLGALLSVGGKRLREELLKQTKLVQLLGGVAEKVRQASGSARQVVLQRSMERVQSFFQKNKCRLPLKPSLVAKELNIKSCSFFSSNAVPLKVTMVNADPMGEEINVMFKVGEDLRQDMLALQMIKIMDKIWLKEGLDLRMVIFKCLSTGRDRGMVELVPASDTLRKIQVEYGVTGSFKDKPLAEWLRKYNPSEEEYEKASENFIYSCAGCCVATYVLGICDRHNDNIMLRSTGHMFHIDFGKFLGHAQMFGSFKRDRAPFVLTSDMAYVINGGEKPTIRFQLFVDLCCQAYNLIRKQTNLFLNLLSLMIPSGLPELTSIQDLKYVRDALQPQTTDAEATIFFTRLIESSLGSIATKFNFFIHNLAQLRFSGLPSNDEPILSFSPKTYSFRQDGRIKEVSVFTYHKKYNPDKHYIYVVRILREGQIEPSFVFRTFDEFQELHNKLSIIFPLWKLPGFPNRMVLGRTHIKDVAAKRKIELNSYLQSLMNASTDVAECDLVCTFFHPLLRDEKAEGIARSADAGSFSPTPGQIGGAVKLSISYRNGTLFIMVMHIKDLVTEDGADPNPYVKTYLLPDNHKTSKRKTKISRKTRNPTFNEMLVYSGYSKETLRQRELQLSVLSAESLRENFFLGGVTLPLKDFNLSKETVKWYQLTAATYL
Phosphatidylinositol 4-kinase beta (Homo sapiens), sequence (Q9UBF8 2-816 limits assumed): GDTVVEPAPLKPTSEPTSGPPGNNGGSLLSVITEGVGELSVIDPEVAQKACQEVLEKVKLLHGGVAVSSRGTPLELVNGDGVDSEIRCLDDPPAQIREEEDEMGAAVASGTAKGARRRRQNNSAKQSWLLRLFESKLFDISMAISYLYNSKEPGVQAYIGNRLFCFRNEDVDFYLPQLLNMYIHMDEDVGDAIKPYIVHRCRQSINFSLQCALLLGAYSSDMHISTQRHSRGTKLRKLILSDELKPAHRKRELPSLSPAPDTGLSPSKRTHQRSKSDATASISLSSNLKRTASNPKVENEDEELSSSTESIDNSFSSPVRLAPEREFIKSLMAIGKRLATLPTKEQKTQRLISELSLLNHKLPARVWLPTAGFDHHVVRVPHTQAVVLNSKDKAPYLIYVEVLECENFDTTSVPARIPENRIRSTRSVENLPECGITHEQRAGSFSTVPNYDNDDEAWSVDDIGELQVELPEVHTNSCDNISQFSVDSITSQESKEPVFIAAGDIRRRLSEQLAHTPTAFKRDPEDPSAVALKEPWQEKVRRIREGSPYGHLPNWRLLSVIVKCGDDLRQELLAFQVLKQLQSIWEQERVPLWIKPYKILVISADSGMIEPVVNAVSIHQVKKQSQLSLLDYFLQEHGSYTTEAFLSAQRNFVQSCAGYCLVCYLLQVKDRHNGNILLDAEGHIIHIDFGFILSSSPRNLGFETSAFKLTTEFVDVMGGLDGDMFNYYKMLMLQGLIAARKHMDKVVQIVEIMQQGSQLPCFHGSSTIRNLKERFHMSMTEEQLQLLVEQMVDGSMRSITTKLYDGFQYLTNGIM
Phosphatidylinositol 3-kinase catalytic subunit type 3 (Homo sapiens), sequence (Q8NEB9 whole entry): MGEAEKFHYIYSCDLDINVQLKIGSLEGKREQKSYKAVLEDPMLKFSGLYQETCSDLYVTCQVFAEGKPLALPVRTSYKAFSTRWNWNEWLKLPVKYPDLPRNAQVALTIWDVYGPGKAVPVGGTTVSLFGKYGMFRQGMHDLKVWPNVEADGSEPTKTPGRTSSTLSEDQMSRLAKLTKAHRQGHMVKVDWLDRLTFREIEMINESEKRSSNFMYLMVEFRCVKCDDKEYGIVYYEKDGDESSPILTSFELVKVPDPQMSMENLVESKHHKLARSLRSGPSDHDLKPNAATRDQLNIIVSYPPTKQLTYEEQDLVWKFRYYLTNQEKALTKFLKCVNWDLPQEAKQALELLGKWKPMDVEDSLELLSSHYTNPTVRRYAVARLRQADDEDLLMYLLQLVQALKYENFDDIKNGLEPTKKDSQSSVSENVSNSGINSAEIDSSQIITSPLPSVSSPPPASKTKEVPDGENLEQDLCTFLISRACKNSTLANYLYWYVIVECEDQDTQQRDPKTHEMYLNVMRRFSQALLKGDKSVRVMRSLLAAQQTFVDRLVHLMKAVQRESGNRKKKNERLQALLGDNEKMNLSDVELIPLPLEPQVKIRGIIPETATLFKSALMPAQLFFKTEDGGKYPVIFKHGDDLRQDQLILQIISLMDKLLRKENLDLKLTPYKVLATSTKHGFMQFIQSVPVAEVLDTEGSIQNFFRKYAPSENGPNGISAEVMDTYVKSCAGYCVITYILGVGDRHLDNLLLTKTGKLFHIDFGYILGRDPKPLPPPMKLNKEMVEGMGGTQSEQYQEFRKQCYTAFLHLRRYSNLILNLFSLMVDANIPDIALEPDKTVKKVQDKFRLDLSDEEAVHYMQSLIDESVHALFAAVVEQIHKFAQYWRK

- inhibition [1]: 65%
- inhibition [2]: 78%
- inhibition [3]: inactive
- inhibition [4]: inactive
- bioavailability [18]: 100%
- fraction unbound [19]: 0.27
- Vd [20]: 2.8 L/kg
- half-life [21]: 3.6 h
- IC50 (Aurora kinase A): > 10000 nM
- IC50 [22]: 591 nM
- IC50 [23]: 371 nM
- IC50 (PC-3 [24]): 330 nM
- clearance [25]: 9 mL/min/kg
- bioavailability [26]: 83%
- CLint scaled [27]: 23 mL/min/kg
- clearance [28]: 17 mL/min/kg
- clearance [29]: 15 mL/min/kg
- clearance [30]: 1.6 mL/min/kg
- Vd [31]: 2.8 L/kg
- Vd [32]: 3 L/kg
- Vd [33]: 1.6 L/kg
- Cmax [34]: 2100 nM
- AUC [35]: 14 µM·h
- bioavailability [36]: 100%
- fraction unbound [37]: 0.36
- Cmax [38]: 2200 nM
- AUC [39]: 21 µM·h
- bioavailability [40]: 83%
- fraction unbound [41]: 0.51
- Cmax [42]: 1100 nM
- AUC [43]: 3.8 µM·h
- bioavailability [44]: 62%
- fraction unbound [45]: 0.21
- Cmax [46]: 4400 nM
- AUC [47]: 63 µM·h
- IC50 [48]: 30 nM
Structure (SMILES): CC(C)(O)c1cc2nc(-c3cnc(N)nc3)nc(N3CCOCC3)c2s1
- inhibition in vivo at 10 mg/kg (PC-3 [5]): 89%
- Activity (PC-3 [6]): inactive
- inhibition in vivo at 10 mg/kg (Mus musculus [7]): 80%
- inhibition in vivo at 10 mg/kg (Mus musculus [8]): 73%
- inhibition in vivo at 10 mg/kg (Mus musculus [9]): 98%
- inhibition in vivo at 10 mg/kg (Mus musculus [10]): 88%
- Activity (PC-3 [11]): 89%
- Activity (Mus musculus [12]): Non-toxic
- Activity (Mus musculus [13]): Non-toxic
- inhibition in vivo at 10 mg/kg [14]: 73%
- Activity (Mus musculus [15]): Non-toxic
- inhibition in vivo at 10 mg/kg (Mus musculus [16]): 81%
- inhibition in vivo at 10 mg/kg (Mus musculus [17]): 75%

— ChEMBL document CHEMBL1154879, “Discovery of (thienopyrimidin-2-yl)aminopyrimidines as potent, selective, and orally available pan-PI3-kinase and dual pan-PI3-kinase/mTOR inhibitors for the treatment of cancer” (J Med Chem, 2010)
